Results on six molecules are retold here after ChEMBL document CHEMBL3853355, “Six new compounds from Atractylodes lancea and their hepatoprotective activities” (2016).

The subject of the assay is HepG2. Description: Hepatoprotective activity against N-acetyl-p-aminophenol-induced cell injury in human HepG2 cells assessed as cell survival at 10 uM after 48 hrs by MTT assay (reference value: 39.87%). The assay is classed as functional. The following applies: HepG2, 48 h, read-out: Survival.
Turning to `C/C(=C\Cc1cc(C(=O)O)cc2c1O[C@H](C(C)(C)O)[C@H]2O)CO`, the viability at 10 µM is 53.6%.

With `COc1cc(-c2coc3c([C@@H]4O[C@H](CO)[C@@H](O)[C@H](O)[C@H]4O)c(O)ccc3c2=O)ccc1O`, the viability at 10 µM was 45.2%. As for `C[C@@H]1O[C@@H](Oc2ccc(C(=O)O)cc2)[C@H](O)[C@H](O[C@@H]2O[C@H](CO)[C@@H](O)[C@H](O)[C@H]2O)[C@H]1O`, the figure is 54.7%. As for `COc1cc(C(=O)O)ccc1O[C@@H]1O[C@@H](C)[C@H](O)[C@@H](O[C@@H]2O[C@H](CO)[C@@H](O)[C@H](O)[C@H]2O)[C@H]1O`, the figure is 54.6%. Turning to `COC(=O)c1cc(OC)c2c(c1-c1c(CO)cc(OC)c3c1OCO3)OCO2` [BICYCLOL], the viability at 10 µM was found to be 52.9%. For the molecule `O=c1c(-c2ccc(O)cc2)coc2c([C@@H]3O[C@H](CO)[C@@H](O)[C@H](O)[C@H]3O)c(O)ccc12` [PUERARIN], the viability at 10 µM amounted to 41.3%.
